Reference: patent US11267802B2 (BEBETTER MED INC., priority 2015, dated 2022)

How the values were obtained:
EGFR T790M/L858R = biological target: T1, EGFR T790M/L858R (Homo sapiens, UniProt P00533, L858R/T790M); test: Mutant EGFR T790M/L858R activity inhibition assay (Caliper mobility shift); assay type: biochemical; details: read-out: enzyme activity inhibition (IC50) EGFR T790M/L858R
T1 construct: purchased Invitrogen PR8911A
Experimental: The assay procedure is as follows. […] 5 μl of the compound dissolved in 10% DMSO at a concentration of 5-fold of the final reaction concentration was added to a 384 well plate. 5 μl of 10% DMSO was used in a no-compound control well, while 5 μl of a kinase buffer was used in a no-enzyme activity control well. […] The conversion rate was read on Caliper EZ Reader II (Caliper Life Sciences). The conversion rate was then converted to inhibitory rate.
As used herein, “max” refers to the conversion rate of the DMSO no-compound control well, and “min” refers to the conversion rate of the no-enzyme activity control well. A curve was obtained by plotting the inhibitory rate as a function of the compound concentration. The XLFit excel add-in version 4.3.1 software was used to fit the curve and calculate the IC50. Inhibitory rate %=(max−conversion rate)/(max−min)×100.

LOVO = test: Inhibition assay on tumor cell proliferation (CellTiter-Glo), LOVO; assay type: cell-based, Human; details: LOVO (wild-type EGFR), 72 hours, 10% bovine serum
Experimental: (§1) By using a CellTiter-Glo luminescence cell viability test kit (Promega, # G7572), the content of adenosine triphosphate (ATP) was determined to assess the cell viability.
(§2) Human colon cancer cell line LOVO and human non-small-cell lung cancer H358 express wild-type EGFR. Human non-small-cell lung cancer cell line HCC827 carries deletion mutation in exon 19 (ex19del). Those cell lines are purchased from Shanghai Fudan IBS Cell Resource Center and American Tissue Culture Collection (ATCC).
(§3) The assay procedure is as follows. The cells in a cell culture plate were digested with a pancreatic enzyme, re-suspended in a DPBS culture medium, and had the cell density counted by Scepter automated cytometer (Millipore # PHCC00000). The cells were diluted to a solution of 44,000 cells per ml. The cell solution with adjusted density was added to the cell assay plate at 90 microliters per well. The plate was placed in an incubator with 5% CO2 at 37° C. for 24 hours of incubation, and then added with different concentrations of subject compounds. The cells were incubated for 72 hours with the compounds in presence of 10% bovine serum. The content of ATP was determined by a CellTiter-Glo® Luminescent Cell Viability Assay kit (see the manufacturer's instruction for details) to evaluate cell-growth inhibition.
(§4) Briefly, 30 μl of CellTiter-Glo® reagent was added to each well, and then shaken for 10 minutes to induce cell lysis. The fluorescent signal was detected and recorded by Fluoroskan Ascent FL (Thermo). The max signal value was obtained from the cells treated by dimethyl sulfoxide for 72 hours. The min signal value was obtained from the medium alone (the number of the cells was 0). Inhibitory rate %=(max signal value−compound signal value)/(max signal value−min signal value)×100. The data was processed by GraphPad Prism V5.0 software (GraphPad Software, San Diego, Calif.). Sigmoidal dose-response curve fitting was performed to calculate the IC50 value.

H1975 = test: Inhibition assay on tumor cell proliferation (CellTiter-Glo), H1975; assay type: cell-based, Human; details: H1975 (L858R and T790M EGFR double mutation), 72 hours, 10% bovine serum
H358 = test: Inhibition assay on tumor cell proliferation (CellTiter-Glo), H358; assay type: cell-based, Human; details: H358 (wild-type EGFR), 72 hours, 10% bovine serum
Experimental: as §1, §2, §3, §4

[1] = Pharmacokinetics in rats after oral administration; assay type: in vivo, SD rats; details: for AUC(0-inf) / Cmax / Tmax / half-life / AUC(0-t): male, SD, rat, 20 mg/kg, plasma; for AUC(0-t): read-out: AUC0-24
Experimental: Male SD rats weighing 250-300 g, or male beagles weighing 9-10 kg, were fasted overnight before the experiment. The object compounds were dissolved in 30% sulfobutylated beta-cyclodextrin (SBE-β-CD), and orally administrated to the rats at a dose of 20 mg/kg or to the beagles at a dose of 5 mg/kg. Blood samples were taken at 15 minutes, 30 minutes, 1 hour, 2 hours, 3 hours, 4 hours, 6 hours, 8 hours and 24 hours after administration. 0.3 ml of blood was collected at every time point, placed in a centrifuge tube containing K2-EDTA (ethylenediamine tetraacetic acid dipotassium) and centrifuged (2,000 g, 10 minutes, 4° C.) to collect plasma, which was then stored in an ultra cold storage freezer at −80° C. 50 μL of plasma sample was mixed with 5 μL of internal standard (IS), and then extracted with ethyl acetate. After vacuum drying, the residue was re-dissolved in acetonitrile. The sample was filtered and injected into LC-MS/MS for analysis.

T1 sequence (P00533 25-1210 T790M/L858R): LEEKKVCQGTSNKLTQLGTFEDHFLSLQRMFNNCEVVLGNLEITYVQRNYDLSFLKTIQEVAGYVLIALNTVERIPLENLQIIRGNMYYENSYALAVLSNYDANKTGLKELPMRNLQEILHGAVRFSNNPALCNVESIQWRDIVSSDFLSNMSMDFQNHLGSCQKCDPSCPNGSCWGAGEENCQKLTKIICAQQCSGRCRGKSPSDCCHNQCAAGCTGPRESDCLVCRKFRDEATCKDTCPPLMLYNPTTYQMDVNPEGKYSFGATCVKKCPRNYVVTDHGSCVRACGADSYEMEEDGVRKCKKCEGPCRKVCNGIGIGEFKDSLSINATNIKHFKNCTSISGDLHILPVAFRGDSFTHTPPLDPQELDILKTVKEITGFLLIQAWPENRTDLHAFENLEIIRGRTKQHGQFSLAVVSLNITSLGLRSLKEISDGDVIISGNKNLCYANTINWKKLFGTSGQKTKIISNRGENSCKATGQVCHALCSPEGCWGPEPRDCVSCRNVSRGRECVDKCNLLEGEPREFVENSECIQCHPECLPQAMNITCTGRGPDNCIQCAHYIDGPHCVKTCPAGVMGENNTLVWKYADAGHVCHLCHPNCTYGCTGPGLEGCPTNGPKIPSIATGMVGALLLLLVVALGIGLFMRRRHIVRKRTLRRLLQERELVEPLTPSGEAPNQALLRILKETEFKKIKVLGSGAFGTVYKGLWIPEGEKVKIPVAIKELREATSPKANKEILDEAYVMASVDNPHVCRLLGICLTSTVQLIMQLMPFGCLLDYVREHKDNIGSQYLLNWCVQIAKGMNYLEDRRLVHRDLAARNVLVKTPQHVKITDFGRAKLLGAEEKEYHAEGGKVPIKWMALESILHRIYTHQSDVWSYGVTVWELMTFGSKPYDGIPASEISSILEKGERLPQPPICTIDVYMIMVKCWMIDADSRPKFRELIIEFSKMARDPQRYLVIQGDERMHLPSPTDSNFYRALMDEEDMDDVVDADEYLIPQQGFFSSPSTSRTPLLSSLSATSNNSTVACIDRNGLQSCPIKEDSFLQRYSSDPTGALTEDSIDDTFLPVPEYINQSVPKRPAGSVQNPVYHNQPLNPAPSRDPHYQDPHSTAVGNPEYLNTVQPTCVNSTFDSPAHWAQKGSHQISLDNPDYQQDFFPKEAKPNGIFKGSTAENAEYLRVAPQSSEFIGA

IC50 (EGFR T790M/L858R) [nM]	IC50 (LOVO; Homo sapiens) [nM]	IC50 (H1975; Homo sapiens, NCI-H1975) [nM]	IC50 (H358; Homo sapiens, NCI-H358) [nM]	melting point [°C]	absorption / blood exposure after oral administration (in words) [1]	AUC(0-inf) [1] [ng·h/mL]	Cmax [1] [ng/mL]	Tmax [1] [h]	half-life [1] [h]	AUC(0-t) [1] [ng·h/mL]	Structure (SMILES)	IC50 (LOVO) [nM]	IC50 (H1975) [nM]	IC50 (H358) [nM]
< 1	> 1000	< 10	100 to 1000	168 to 170	–	–	–	–	–	–	C=CC(=O)Nc1cc(Nc2nccc(-n3ccc4cc(F)ccc43)n2)c(OC)cc1N(C)CCN(C)C [Compound 28, N-(2-((2-(dimethylamino)ethyl)(methyl)amino)-5-((4-(5-fluoro-1H-indol-1-yl)pyrimidin-2-yl)amino)-4-methoxyphenyl)acrylamide]	–	–	–
1 to 10	> 1000	10 to 50	–	81 to 83	–	–	–	–	–	–	C=CC(=O)Nc1cc(Nc2nccc(-n3ccc4ccccc43)n2)c(OC)cc1N1CC(N(C)C)C1 [Compound 77, N-(5-(4-(1H-indol-1-yl)pyrimidin-2-ylamino)-2-(3-(dimethylamino)azetidin-1-yl)-4-methoxyphenyl)acrylamide]	–	–	–
< 1	–	< 10	100 to 1000	187 to 188	well absorbed, with high blood exposure	920	84	3.7	6.8	834	C=CC(=O)Nc1cc(Nc2nccc(-n3c(=O)n(CC=C(C)C)c4ccccc43)n2)c(OC)cc1N(C)CCN(C)C [Compound 62, N-(2-((2-(dimethylamino)ethyl)(methyl)amino)-4-methoxy-5-(4-(3-(3-methylbut-2-enyl)-2-oxo-2,3-dihydro-1H-benzo[d]imidazol-1-yl)pyrimidin-2-ylamino)phenyl)acrylamide]	–	–	–
< 1	–	< 10	100 to 1000	127 to 129	well absorbed, with high blood exposure	1790	327	1.7	6.1	1700	C=CC(=O)Nc1cc(Nc2nccc(-n3ccc4nc(Cl)ccc43)n2)c(OC)cc1N(C)CCN(C)C [Compound 124, N-(5-((4-(5-chloro-1H-pyrrolo[3,2-b]pyridin-1-yl)pyrimidin-2-yl)amino)-2-((2-(dimethylamino)ethyl)(methyl)amino)-4-methoxyphenyl)acrylamide]	–	–	–
1 to 10	100 to 1000	100 to 1000	100 to 1000	–	–	–	–	–	–	–	COc1cc(N(C)CCN(C)C)c(NC(=O)/C=C/CN2CCCCC2)cc1Nc1nccc(-n2ccc3ccccc32)n1 [Compound 70, (E)-N-(5-(4-(1H-indol-1-yl)pyrimidin-2-ylamino)-2-((2-(dimethylamino)ethyl)(methyl)amino)-4-methoxyphenyl)-4-(piperidin-1-yl)but-2-enamide]	–	–	–
1 to 10	–	10 to 50	> 1000	114.6 to 116.2	–	–	–	–	–	–	C=CC(=O)Nc1cc(Nc2ncc(N(C)C)c(-n3c(=O)n(C(C)C)c4ccccc43)n2)c(OC)cc1N(C)CCN(C)C [Compound 135, N-(5-((5-(dimethylamino)-4-(3-isopropyl-2-oxo-2,3-dihydro-1H-benzo[d]imidazol-1-yl)pyrimidin-2-yl)amino)-2-((2-(dimethylamino)ethyl)(methyl)amino)-4-methoxyphenyl)acrylamide]	–	–	–
< 1	–	< 10	100 to 1000	144 to 146	–	–	–	–	–	–	C=CC(=O)Nc1cc(Nc2nccc(-n3c(=O)n(C4CC4)c4cc(OC)ccc43)n2)c(OC)cc1N(C)CCN(C)C [Compound 102, N-(5-((4-(3-cyclopropyl-5-methoxy-2-oxo-2,3-dihydro-1H-benzo[d]imidazol-1-yl)pyrimidin-2-yl)amino)-2-((2-(dimethylamino)ethyl)(methyl)amino)-4-methoxyphenyl)acrylamide]	–	–	–
1 to 10	–	< 10	100 to 1000	95 to 98	–	–	–	–	–	–	C=CC(=O)Nc1cc(Nc2nccc(-n3c(=O)n(C(C)C)c4cc(OC)ccc43)n2)c(OC)cc1N(C)CCN(C)C [Compound 138, N-(2-((2-(dimethylamino)ethyl)(methyl)amino)-5-((4-(3-isopropyl-5-methoxy-2-oxo-2,3-dihydro-1H-benzo[d]imidazol-1-yl)pyrimidin-2-yl)amino)-4-methoxyphenyl)acrylamide]	–	–	–
1 to 10	> 1000	< 10	100 to 1000	–	–	–	–	–	–	–	C=CC(=O)Nc1cc(Nc2nccc(-n3ccc4cc([N+](=O)[O-])ccc43)n2)c(OC)cc1N(C)CCN(C)C [Compound 34, N-{2-[(2-Dimethylamino-ethyl)-methyl-amino]-4-methoxy-5-[4-(5-nitro-indol-1-yl)-pyrimidin-2-ylamino]-phenyl}-acryl amide]	–	–	–
< 1	–	< 10	100 to 1000	190 to 193	–	–	–	–	–	–	C=CC(=O)Nc1cc(Nc2nccc(-n3c(=O)n(C)c4ccccc43)n2)ccc1N(C)CCN(C)C [Compound 125, N-(2-((2-(dimethylamino)ethyl)(methyl)amino)-5-((4-(3-methyl-2-oxo-2,3-dihydro-1H-benzo[d]imidazol-1-yl)pyrimidin-2-yl)amino)phenyl)acrylamide]	–	–	–
1 to 10	–	< 10	100 to 1000	124 to 126	–	–	–	–	–	–	C=CC(=O)Nc1cc(Nc2nccc(-n3c(=O)n(C4CC4)c4cc(Cl)ccc43)n2)c(OC)cc1N(C)CCN(C)C [Compound 99, N-(5-((4-(5-chloro-3-cyclopropyl-2-oxo-2,3-dihydro-1H-benzo[d]imidazol-1-yl)pyrimidin-2-yl)amino)-2-((2-(dimethylamino)ethyl)(methyl)amino)-4-methoxyphenyl)acrylamide]	–	–	–
< 1	–	< 10	100 to 1000	85 to 90	–	–	–	–	–	–	C=CC(=O)Nc1cc(Nc2nccc(-n3c(=O)n(C(C)C)c4ccccc43)n2)ccc1N(C)CCN(C)C [Compound 128, N-(2-((2-(dimethylamino)ethyl)(methyl)amino)-5-((4-(3-isopropyl-2-oxo-2,3-dihydro-1H-benzo[d]imidazol-1-yl)pyrimidin-2-yl)amino)phenyl)acrylamide]	–	–	–
< 1	> 1000	< 10	100 to 1000	–	–	–	–	–	–	–	C=CC(=O)Nc1cc(Nc2ncc(C)c(-n3ccc4ccccc43)n2)c(OC)cc1N(C)CCN(C)C [Compound 8, N-(5-((4-(1H-indol-1-yl)-5-methylpyrimidin-2-yl)amino)-2-((2-(dimethylamino)ethyl)(methyl)amino)-4-methoxyphenyl)acrylamide]	–	–	–

Structure (SMILES)	IC50 (EGFR T790M/L858R) [nM]	IC50 (LOVO; Homo sapiens) [nM]	IC50 (H1975; Homo sapiens, NCI-H1975) [nM]	IC50 (H358; Homo sapiens, NCI-H358) [nM]	melting point [°C]	absorption / blood exposure after oral administration (in words) [1]	AUC(0-inf) [1] [ng·h/mL]	Cmax [1] [ng/mL]	Tmax [1] [h]	half-life [1] [h]	AUC(0-t) [1] [ng·h/mL]	IC50 (LOVO) [nM]	IC50 (H1975) [nM]	IC50 (H358) [nM]
C=CC(=O)Nc1cc(Nc2nccc(-n3c(=O)n(C)c4cc(OC)ccc43)n2)c(OC)cc1N(C)CCN(C)C [Compound 53, N-(2-((2-(dimethylamino)ethyl) (methyl)amino)-4-methoxy-5-((4-(5-methoxy-3-methyl-2-oxo-2,3-dihydro-1H-benzo[d]imidazol-1-yl)pyrimidin-2-yl)amino)phenyl)acryl amide]	< 1	–	–	–	–	–	–	–	–	–	–	> 1000	10 to 50	50 to 100
